From patent US20240261375A1, “PHARMACEUTICAL COMPOSITION FOR TREATING OR PREVENTING DISORDER ASSOCIATED WITH ADMINISTRATION OF ANTICANCER AGENT” (LTT BIO-PHARMA CO., LTD., priority 2021, published 2024)

Experiments:
[1] = tested on: PC12 cells differentiated by NGF; assay: Neurite retraction in NGF-differentiated PC12 cells caused by anticancer agents; assay type: cell-based, rat; conditions: 24 hours; for neurite retraction caused by oxaliplatin: oxaliplatin 20 μM
Protocol: Rat adrenal gland pheochromocytoma-derived PC12 cells are known to be differentiated into neuron-like cells having neurites by nerve growth factor (NGF) and are widely used as a nerve cell model. To assess the neurite-protective action of PC-SOD, the effect of PC-SOD in neurite disorder caused by various anticancer agents was analyzed by using PC12 cells differentiated by NGF.
PC12 cells were seeded on a 24-well plate coated with collagen at 5 000 cells/well. […] The images of cells were captured by using a microscope (BZ-X800, Keyence Corporation), and the neurite lengths were measured by using an image analysis software ImageJ (NIH).
(§1) PC12 cells were seeded on a 24-well plate coated with collagen at 5 000 cells/well. […] After neurite elongation, cells were cultured by using differentiation media each containing carboplatin (with a final concentration of 50 μM) alone or carboplatin and PC-SOD (with final concentrations of 10, 20, 50, and 100 μg/mL) for 24 hours. The images of cells were captured by using a microscope (BZ-X800, Keyence Corporation), and the neurite lengths were measured by using an image analysis software ImageJ (NIH).
as §1, with “containing paclitaxel (abbreviated as PTX in the figure of results) alone” for “containing carboplatin”, “of 0.1” for “of 50”, “μM)” for “μM) alone”, “or paclitaxel” for “or carboplatin”, “10,” for “10, 20,”

RAW cells [2] = assay: Toxicity of anticancer agents against RAW cells (CellTiter-Glo viable cell count); assay type: cell-based; conditions: gemcitabine, oxaliplatin, cisplatin or carboplatin with simultaneous PC-SOD, 24 hours; FIG. 12-2
Protocol: RAW cells were seeded on a 96-well plate at 20 000 cells/well (D-MEM high glucose medium containing 10% inactivated FBS). […] The number of viable cells was counted 24 hours later by measuring chemical luminescence by using CellTiter-Glo™ 2.0 Cell Viability Assay (Promega) and a plate reader (Tecan, Infinite M Plex). Cells for four wells were analyzed for each group.

[3] = tested on: kidney of CIS-treated rats; assay: Assessment of kidney disorder caused by cisplatin in rats; assay type: in vivo, rat; conditions: CIS 3 mg/kg i.p. 8 doses
Protocol: Six to eight-week-old male SD rats (from 200 to 400 g) were used. […] A total of eight doses were given with a regimen of twice weekly for four weeks (Days 1, 2, 7, 8, 13, 14, 19, and 20). A solvent for CIS, i.e., physiological saline, was similarly administered to a control group. […] Laboratory animals were divided into three groups: a control group, a CIS administration group, and a group receiving administration of CIS and PC-SOD 1 mg/kg (CIS+PC-SOD administration group) (n=6 per group).
For an experiment of prevention, PC-SOD was administered into the caudal vein from five to 15 minutes after CIS administration in the CIS+PC-SOD administration group. A total of eight doses were given with a regimen of twice weekly for four weeks (Days 1, 2, 7, 8, 13, 14, 19, and 20). A solvent for PC-SOD was similarly administered to the control group and the CIS administration group. The rat kidney weight was measured, and changes in the kidney weight were corrected with body weight. Further, a photograph of the kidney was taken to check changes in size and morphology of the kidney (Scale bar=10 mm).
For pathological analysis, a split was put in the sagittal plane of the collected kidney, and the kidney was fixed with 10% formalin to prepare a paraffin block by using Histos 5 (Milestone) and an embedding center (EG1160, Leica). The sample block was thinly sliced by using a microtome (MR2245, Leica) at a thickness of 3 μm to prepare a slide. The prepared slide was subjected to Periodic acid-Schiff (PAS) staining for assessment of clinical condition and Picrosirius Red staining for assessment of fibrosis. A fibrosis marker α-SMA was stained by an immunostaining method. […] Observation and assessment were performed by observing the whole section. Four to nine images of tissue on the cortical side on which the disorder was induced were randomly taken up, and inflammation, tubular necrosis, protein agglutination in renal tubules, vacuolation, and necrosis were assessed for changes in clinical condition. […] (Scale bar=500 μm (FIG. 11-1), Scale bar=200 μm (FIGS. 11-2 and 11-3)).

RAW cells [4] = assay: Active oxygen production in RAW cells (MitoSOX Red); assay type: cell-based; conditions: gemcitabine, oxaliplatin, cisplatin or carboplatin with simultaneous PC-SOD, 16 hours; FIG. 13-2
Protocol: RAW cells were seeded on a 96-well plate for fluorescence at 20 000 cells/well (D-MEM high glucose medium containing 10% inactivated FBS). […] Sixteen hours later, cells were treated with an HBSS solution containing dissolved MitoSOX™ Red Mitochondrial Superoxide Indicator (Invitrogen™) for 30 minutes, and the medium was replaced with D-MEM high glucose medium containing 1% inactivated FBS. Active oxygen production in mitochondria was determined by measuring fluorescence (Ex 510 nm, Em 580 nm) by using a plate reader (Infinite M Plex, Tecan). Cells for four wells were analyzed for each group.

[5] = tested on: liver of OXA-treated rats; assay: Pathological assessment of liver disorder caused by oxaliplatin (HE staining); assay type: in vivo, rat; conditions: PC-SOD 1 mg/kg, mangafodipir dose not given, FIG. 5
From the text: A liver tissue was collected and fixed with 10% neutral buffered formalin to prepare a paraffin block by using Histos 5 (Milestone) and an embedding center (EG1160, Leica). The sample block was thinly sliced at a thickness of 3 μm by using a microtome (MR2245, Leica) to prepare a slide. The prepared slide was stained by HE staining, enclosed, and observed at 200 and 400-fold magnifications by using the optical microscope function of All-in-One Fluorescence Microscope (BZ-X800, Keyence Corporation). Observation and assessment were performed by observing the whole section. Two to four representative tissue images were randomly taken up, and alteration in the tissue structure, such as inflammation and necrosis, was observed and assessed (Scale bar=200 μm).

Substance: lecithinized superoxide dismutase [PC-SOD]
- neurite retraction caused by carboplatin ([1]; carboplatin 50 μM, PC-SOD 10, 20, 50, 100 μg/mL, FIG. 7-2): suppressed by simultaneous addition of PC-SOD dependently on the PC-SOD concentration
- neurite retraction caused by cisplatin ([1]; cisplatin 33 μM, PC-SOD 10, 50, 100 μg/mL, FIG. 7-1): significantly suppressed as compared with addition of cisplatin alone
- neurite retraction caused by oxaliplatin ([1]; PC-SOD 10, 50, 100 μg/mL, FIG. 7-1): markedly suppressed by simultaneous addition of PC-SOD dependently on the PC-SOD concentration
- neurite retraction caused by oxaliplatin ([1]; test substance 50 μg/mL, FIG. 8): suppressed almost completely
- neurite retraction caused by paclitaxel ([1]; paclitaxel 0.1 μM, PC-SOD 10, 50, 100 μg/mL, FIG. 7-3): suppressed by simultaneous addition of PC-SOD dependently on the PC-SOD concentration
- anticancer agent-dependent decrease in number of viable RAW cells (RAW cells [2]): significantly suppressed the anticancer agent-dependent decreases in the number of viable cells dependently on the concentration of PC-SOD
- increase in kidney weight and swelling of the kidney caused by CIS ([3]; PC-SOD 1 mg/kg caudal vein, FIG. 10-1, 10-2): the suppressive effect on an increase in the kidney weight and swelling of the kidney caused by CIS was confirmed
- pathological damage to the kidney caused by CIS (PAS staining) ([3]; PC-SOD 1 mg/kg, FIG. 11-1): a suppressive effect on pathological damage to the kidney caused by CIS was observed
- renal fibrosis caused by CIS (Picrosirius Red and α-SMA staining) ([3]; PC-SOD 1 mg/kg, FIG. 11-2, 11-3): decreases of fibrosis-positive regions in the kidney caused by CIS were detected
- anticancer agent-dependent production of active oxygen in RAW cells (RAW cells [4]): significantly suppressed the anticancer agent-dependent production of active oxygen dependently on the concentration of PC-SOD
- necrosis of liver cells caused by OXA [5]: a suppressive effect on necrosis of liver cells caused by OXA was shown
